Laboratory results from ChEMBL document CHEMBL4431349, “Synthesis and in vitro evaluation of water-soluble 1,4-diphenethylpiperazine analogs as novel inhibitors of the vesicular monoamine transporter-2” (Bioorg Med Chem Lett, 2016).

Key:
[1] = biological target: Voltage-gated inwardly rectifying potassium channel KCNH2 (Homo sapiens, UniProt Q12809); assay: Inhibition of [3H]dofetilide binding to human ERG expressed in HEK293 cell membranes after 60 mins by liquid scintillation spectrometric analysis
Voltage-gated inwardly rectifying potassium channel KCNH2, sequence (Q12809 whole entry): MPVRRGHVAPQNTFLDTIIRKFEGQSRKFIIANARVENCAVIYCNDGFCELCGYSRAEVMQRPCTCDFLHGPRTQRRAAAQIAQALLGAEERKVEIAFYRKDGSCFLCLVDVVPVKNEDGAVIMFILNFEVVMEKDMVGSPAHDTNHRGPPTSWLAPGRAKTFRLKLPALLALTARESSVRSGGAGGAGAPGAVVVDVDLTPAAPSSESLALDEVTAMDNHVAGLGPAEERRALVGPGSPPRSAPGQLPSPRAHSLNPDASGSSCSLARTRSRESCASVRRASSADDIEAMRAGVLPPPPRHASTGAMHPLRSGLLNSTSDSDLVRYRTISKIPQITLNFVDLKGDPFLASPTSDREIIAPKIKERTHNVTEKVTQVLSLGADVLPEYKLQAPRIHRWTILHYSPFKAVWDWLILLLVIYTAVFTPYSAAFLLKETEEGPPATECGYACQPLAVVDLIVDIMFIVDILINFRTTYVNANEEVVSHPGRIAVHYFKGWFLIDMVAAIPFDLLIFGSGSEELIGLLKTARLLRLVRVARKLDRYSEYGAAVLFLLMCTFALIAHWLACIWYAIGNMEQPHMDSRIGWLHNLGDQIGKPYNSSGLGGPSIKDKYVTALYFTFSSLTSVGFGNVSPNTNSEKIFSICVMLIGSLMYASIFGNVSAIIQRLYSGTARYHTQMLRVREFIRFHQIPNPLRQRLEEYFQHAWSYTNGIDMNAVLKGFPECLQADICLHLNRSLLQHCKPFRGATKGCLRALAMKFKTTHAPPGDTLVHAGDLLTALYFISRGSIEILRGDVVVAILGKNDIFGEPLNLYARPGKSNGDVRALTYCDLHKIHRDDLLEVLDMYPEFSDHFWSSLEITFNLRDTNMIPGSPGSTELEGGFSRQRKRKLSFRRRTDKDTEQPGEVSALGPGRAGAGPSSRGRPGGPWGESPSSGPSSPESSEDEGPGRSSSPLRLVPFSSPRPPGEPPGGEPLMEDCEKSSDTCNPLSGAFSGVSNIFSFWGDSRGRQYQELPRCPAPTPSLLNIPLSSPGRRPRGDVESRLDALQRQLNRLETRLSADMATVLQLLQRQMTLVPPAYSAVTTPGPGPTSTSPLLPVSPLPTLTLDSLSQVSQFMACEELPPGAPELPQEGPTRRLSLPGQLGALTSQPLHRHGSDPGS

[2] = Thermodynamic solubility of the compound in water at pH 7.4 after 24 hrs by HPLC based shake flask method; format: physicochemical; settings: read-out: Therm_solubility

| Structure (SMILES) | Ki [1] [nM] | solubility thermodynamic at 24 h [2] [mg/mL] |
| --- | --- | --- |
| Clc1ccccc1CCN1CCN(CCc2ccccc2Cl)CC1 | 1080 | – |
| COc1ccccc1CCN1CCN(CCc2ccccc2OC)CC1 | 1020 | – |
| COc1ccccc1CCN1CCN(CCc2ccccc2)CC1.Cl.Cl | 2940 | 33.3 |
